Experimental data reported in patent US10221129B2, “Inhibitors of human immunodeficiency virus replication” (ViiV HEALTHCARE UK (NO.5) LIMITED, priority 2015, dated 2019).

Columns and labels:
[1] = tested on: recombinant NL4-3 virus (nef section replaced with Renilla luciferase gene) in MT-2 cells; experiment: HIV cell culture assay (antiviral activity, luciferase readout); format: cell-based
In short: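 Serial compound dilutions tested in MT-2 cells infected for 4-5 days with 293T-derived NL4-3 virus carrying Renilla luciferase in place of part of nef. Antiviral activity quantified as luciferase activity, read with a live-cell substrate.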

[2] = Compound cytotoxicity, XTT-based colorimetric assay; format: cell-based; settings: human, uninfected MT2 cells, day 4, XTT
In short: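 Run under the antiviral-assay protocol but without virus. Viability was read on day 4 and CC50 values were derived from the readout.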

[3] = Renilla, NL43, MT-2 cells infected for 4-5 days with recombinant NL4-3 Renilla luciferase virus

Compound | EC50 [1, 3] [nM] | CC50 at 4 days [2] [nM] | EC50 ([1]; MT-2 cells infected for 4-5 days with recombinant NL4-3 Renilla luciferase virus) [nM] | CC50 at 4 day [2] [nM]
COc1ccc(N(C)C(=O)[C@H](Cc2ccccc2)NC(=O)NS(=O)(=O)n2c3ccccc3c3ccccc32)cc1 [JB-9] | 440 | 74200 |  | 
COc1ccc(N(C)C(=O)[C@H](Cc2cc(F)cc(F)c2)NC(=O)NS(=O)(=O)N2CCc3c(Cl)ccnc32)cc1 [BB-4] | 420 | 61900 |  | 
COc1ccc(N(C)C(=O)[C@H](Cc2ccccc2)NC(=O)NS(=O)(=O)Nc2ccccc2C#N)cc1 [CA-6] | 380 | > 100000 |  | 
CN(C(=O)[C@H](Cc1cc(F)cc(F)c1)NC(=O)NS(=O)(=O)Nc1cccc(Cl)c1)c1ccc2scnc2c1 [CA-116] | 60 | 73200 |  | 
CN(C(=O)[C@H](Cc1cc(F)cc(F)c1)NC(=O)NS(=O)(=O)N1CCc2cccnc21)c1ccc(OC(F)F)nc1 [GW-13] | 60 | > 100000 |  | 
COc1ccc(N(C)C(=O)[C@H](Cc2ccccc2)NC(=O)NS(=O)(=O)n2ncc3c(Cl)nc(Cl)cc32)cc1 [CA-66] | 14600 | > 100000 |  | 
COc1ccc(N(C)C(=O)[C@H](Cc2cc(F)cc(F)c2)NC(=O)NS(=O)(=O)N2CCC[C@@H]2C(=O)N(C)C)cc1 [BB-27] | 970 | > 100000 |  | 
COc1ccc(N(C)C(=O)[C@H](Cc2ccccc2)NC(=O)NS(=O)(=O)Nc2ccc(Cl)c(Cl)c2)cc1 [CA-12] | 90 | > 33300 |  | 
CN(C(=O)[C@H](Cc1cc(F)cc(F)c1)NC(=O)NS(=O)(=O)N1CCc2cccnc21)c1ccc2c(cnn2C)c1 [GW-8] | 100 | > 25000 |  | 
COc1ccc(N(C)C(=O)[C@H](Cc2ccccc2)NC(=O)NS(=O)(=O)N2CCN(C)CC2c2ccccc2)cc1 (mixture of isomers) [JB-42] | 450 | > 100000 |  | 
COc1ccc(N(C)C(=O)[C@H](Cc2ccccc2)NC(=O)NS(=O)(=O)N(C)c2ccccc2)cc1 [JB-3] | 130 | > 100000 |  | 
CN(C(=O)[C@H](Cc1cc(F)cc(F)c1)NC(=O)NS(=O)(=O)N1CCc2cccnc21)c1ccc(C(N)=O)cc1 [BB-5] | 4910 | > 100000 |  | 
COc1ccc(N(C)C(=O)[C@H](Cc2ccccc2)NC(=O)NS(=O)(=O)Nc2ccccc2OC)cc1 [JB-16] | 170 | > 100000 |  | 
CN(C(=O)[C@H](Cc1cc(F)cc(F)c1)NC(=O)NS(=O)(=O)N1CCC(Cc2ccccc2)CC1)c1ccc2scnc2c1 [CA-133] | 720 | 86400 |  | 
CN(C(=O)[C@H](Cc1cc(F)cc(F)c1)NC(=O)NS(=O)(=O)N(C)C)c1ccc(OC(F)F)cc1 [BB-37] | 100 | > 100000 |  | 
COc1ccc(N(C)C(=O)[C@H](Cc2ccccc2)NC(=O)NS(=O)(=O)Nc2ccc(C#N)cc2)cc1 [CA-15] | 70 | > 100000 |  | 
COc1ccc(N(C)C(=O)[C@H](Cc2ccccc2)NC(=O)NS(=O)(=O)Nc2cccc(Cl)c2Cl)cc1 [CA-30] | 80 | > 100000 |  | 
CC(C)NS(=O)(=O)NC(=O)N[C@@H](Cc1cc(F)cc(F)c1)C(=O)N(C)c1ccc2scnc2c1 [CA-136] | 60 | > 100000 |  | 
CN(C(=O)[C@H](Cc1cc(F)cc(F)c1)NC(=O)NS(=O)(=O)NCCc1ccccc1)c1ccc2scnc2c1 [CA-158] | 340 | > 100000 |  | 
CCOc1ccc(N(CC)C(=O)[C@H](Cc2ccccc2)NC(=O)NS(=O)(=O)N2CCc3ccccc32)cc1 [JB-73] | 50 | > 33300 |  | 
CN(C(=O)[C@H](Cc1cc(F)cc(F)c1)NC(=O)NS(=O)(=O)NC1CC1)c1ccc2scnc2c1 [CA-142] | 40 | > 100000 |  | 
COc1ccccc1NS(=O)(=O)NC(=O)N[C@@H](Cc1ccccc1)C(=O)N(C)c1ccc2ncccc2c1 [JB-12] | 170 | 57700 |  | 
Cc1cc(N(C)C(=O)[C@H](Cc2cc(F)cc(F)c2)NC(=O)NS(=O)(=O)N2CCc3cccnc32)cnc1C [GW-20] | 230 | > 100000 |  | 
COc1ccc(N(C)C(=O)[C@H](Cc2ccccc2)NC(=O)NS(=O)(=O)Nc2ccc(F)cc2)cc1 [JB-50] | 100 | > 100000 |  | 
COc1ccc(N(C)C(=O)[C@H](Cc2ccccc2)NC(=O)NS(=O)(=O)NCC(=O)N2CCCC2)cc1 [CA-51] | 4590 | > 100000 |  | 

Compound | EC50 [1, 3] [nM] | CC50 at 4 days [2] [nM] | EC50 ([1]; MT-2 cells infected for 4-5 days with recombinant NL4-3 Renilla luciferase virus) [nM] | CC50 at 4 day [2] [nM]
COc1ccc(N(C)C(=O)[C@H](Cc2ccccc2)NC(=O)NS(=O)(=O)N(C)c2cccc(Cl)c2)cc1 [JB-37] | 60 | > 100000 |  | 
CCc1ccc(CN(C)S(=O)(=O)NC(=O)N[C@@H](Cc2ccccc2)C(=O)N(C)c2ccc(OC)cc2)cc1 [JB-41] | 5060 | > 33300 |  | 
CN(C(=O)[C@H](Cc1cc(F)cc(F)c1)NC(=O)NS(=O)(=O)N(C)c1ccccn1)c1ccc2scnc2c1 [CA-113] | 140 | > 100000 |  | 
COc1ccc(N(C)C(=O)[C@H](Cc2ccccc2)NC(=O)NS(=O)(=O)Nc2cccc(C)c2)cc1 [JB-24] | 100 | > 100000 |  | 
Cc1cc(N(C)C(=O)[C@H](Cc2cc(F)cc(F)c2)NC(=O)NS(=O)(=O)N2CCc3cccnc32)ccc1Cl [BB-16] | 30 | 56300 |  | 
COc1ccc(N(C)C(=O)[C@H](Cc2ccccc2)NC(=O)NS(=O)(=O)Nc2cccc(NS(C)(=O)=O)c2)cc1 [CA-46] | 11600 | > 100000 |  | 
COc1ccc(N(C)C(=O)[C@H](Cc2ccccc2)NC(=O)NS(=O)(=O)Nc2ccc(F)c(F)c2)cc1 [JB-51] | 110 | > 100000 |  | 
CN(C(=O)[C@H](Cc1cc(F)cc(F)c1)NC(=O)NS(=O)(=O)N1CCc2cccnc21)c1cnc2scnc2c1 [GW-16] | 280 | > 100000 |  | 
COc1ccc(N(C)C(=O)[C@H](Cc2cc(F)cc(F)c2)NC(=O)NS(=O)(=O)N2CCc3ccncc32)cc1 [BB-10] | 1080 | > 100000 |  | 
CC1Cc2cccnc2N1S(=O)(=O)NC(=O)N[C@@H](Cc1cc(F)cc(F)c1)C(=O)N(C)c1ccc2scnc2c1 (single isomer, unassigned) [VN-6] |  |  | 20 | > 1000
COCCNS(=O)(=O)NC(=O)N[C@@H](Cc1cc(F)cc(F)c1)C(=O)N(C)c1ccc2scnc2c1 [CA-153] | 150 | 9000 |  | 
COc1ccc(N(C)C(=O)[C@H](Cc2ccccc2)NC(=O)NS(=O)(=O)Nc2cccc(F)c2)cc1 [CA-10] | 70 | > 100000 |  | 
CCCN(C)S(=O)(=O)NC(=O)N[C@@H](Cc1cc(F)cc(F)c1)C(=O)N(C)c1ccc2scnc2c1 [CA-141] | 40 | > 100000 |  | 
CCOc1ccc(N(CC)C(=O)[C@H](Cc2ccccc2)NC(=O)NS(=O)(=O)N2CCc3cc(Cl)cc(Cl)c32)cc1 [JB-76] | 8750 | > 33300 |  | 
COc1ccc(N(C)C(=O)[C@H](Cc2ccccc2)NC(=O)NS(=O)(=O)N2CCCCC2)cc1 [JB-14] | 690 | > 100000 |  | 
COc1ccc(N(C)C(=O)[C@H](Cc2ccccc2)NC(=O)NS(=O)(=O)Nc2cccc3ncccc23)cc1 [CA-8] | 590 | > 100000 |  | 
COc1ccc(N(C)C(=O)[C@H](Cc2ccccc2)NC(=O)NS(=O)(=O)NC(C)c2ncnn2C)cc1 (mixture of isomers) [JB-68] | 2370 | > 100000 |  | 
COc1ccc(N(C)C(=O)[C@H](Cc2ccccc2)NC(=O)NS(=O)(=O)n2ccc3cnccc32)cc1 [JB-80] | 360 |  |  | > 100000
COc1ccc(N(C)C(=O)[C@H](Cc2ccccc2)NC(=O)NS(=O)(=O)Nc2ccc3ncsc3c2)cc1 [CA-24] | 60 | > 100000 |  | 
CN(C(=O)[C@H](Cc1cc(F)cc(F)c1)NC(=O)NS(=O)(=O)N1CC[C@@H](O)C1)c1ccc2scnc2c1 [VN-27] | 90 | > 100000 |  | 
CN(C(=O)[C@H](Cc1cc(F)cc(F)c1)NC(=O)NS(=O)(=O)n1ccc2cccnc21)c1ccc2scnc2c1 [VN-8] | 50 | > 100000 |  | 
CN1CCN(S(=O)(=O)NC(=O)N[C@@H](Cc2cc(F)cc(F)c2)C(=O)N(C)c2ccc3scnc3c2)CC1 [CA-122] | 280 | > 33300 |  | 
COc1ccc(N(C)C(=O)[C@H](Cc2ccccc2)NC(=O)NS(=O)(=O)N2Cc3ccncc3C2)cc1 [JB-44] | 1750 | > 100000 |  | 
COc1ccc(N(C)C(=O)[C@H](Cc2ccccc2)NC(=O)NS(=O)(=O)Nc2ccccc2C)cc1 [JB-17] | 80 | > 100000 |  | 
